Read-outs that look alike come from different tables or passages of the source. Values belong to the compound of their own block, whether it stands above or below them.
Target: T1, CFTR (Homo sapiens, UniProt P13569, DEL508-508)
T1 construct: endogenous in cells; host or cells: primary human bronchial epithelial cells from CF subjects (F508del/MF-HBE), differentiated at air-liquid interface
Assay: HBE assay: Ussing chamber assay of CFTR-mediated short-circuit currents
Type: cell-based
How it was run: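 CFTR-mediated Isc (μA/cm²) equals the peak response to apical 20 μM forskolin minus the residual after a 20 μM each BPO/GlyH-101/CFTR inhibitor 172 cocktail, recorded in Ussing chambers at Vhold 0 mV, 37 °C, pH 7.4, with 30 μM apical amiloride. Cells were F508del/MF HBE cultures preincubated 18-24 h with corrector (concentration range or 10 μM) plus 1 μM ivacaftor in 20% human serum.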

[1] = Table 10, at 10 μM, read-out: HBE activity at 10 (μM) (%)
[2] = Table 12, at 10 μM, read-out: HBE Activity at 10 μM (%)
[3] = Table 10, read-out: HBE Max activity (%)
[4] = Table 13, at 10 μM, read-out: HBE Activity at 10 μM (%)
[5] = Table 11, read-out: HBE Max Activity (%)
[6] = HBE assay, read-out: HBE Max activity (%)
[7] = Table 12, read-out: HBE Max Activity (%)
[8] = HBE assay, 10 μM, read-out: HBE Activity at 10 μM (%)

T1 sequence (P13569 with tags, fused parts or gaps DEL508-508): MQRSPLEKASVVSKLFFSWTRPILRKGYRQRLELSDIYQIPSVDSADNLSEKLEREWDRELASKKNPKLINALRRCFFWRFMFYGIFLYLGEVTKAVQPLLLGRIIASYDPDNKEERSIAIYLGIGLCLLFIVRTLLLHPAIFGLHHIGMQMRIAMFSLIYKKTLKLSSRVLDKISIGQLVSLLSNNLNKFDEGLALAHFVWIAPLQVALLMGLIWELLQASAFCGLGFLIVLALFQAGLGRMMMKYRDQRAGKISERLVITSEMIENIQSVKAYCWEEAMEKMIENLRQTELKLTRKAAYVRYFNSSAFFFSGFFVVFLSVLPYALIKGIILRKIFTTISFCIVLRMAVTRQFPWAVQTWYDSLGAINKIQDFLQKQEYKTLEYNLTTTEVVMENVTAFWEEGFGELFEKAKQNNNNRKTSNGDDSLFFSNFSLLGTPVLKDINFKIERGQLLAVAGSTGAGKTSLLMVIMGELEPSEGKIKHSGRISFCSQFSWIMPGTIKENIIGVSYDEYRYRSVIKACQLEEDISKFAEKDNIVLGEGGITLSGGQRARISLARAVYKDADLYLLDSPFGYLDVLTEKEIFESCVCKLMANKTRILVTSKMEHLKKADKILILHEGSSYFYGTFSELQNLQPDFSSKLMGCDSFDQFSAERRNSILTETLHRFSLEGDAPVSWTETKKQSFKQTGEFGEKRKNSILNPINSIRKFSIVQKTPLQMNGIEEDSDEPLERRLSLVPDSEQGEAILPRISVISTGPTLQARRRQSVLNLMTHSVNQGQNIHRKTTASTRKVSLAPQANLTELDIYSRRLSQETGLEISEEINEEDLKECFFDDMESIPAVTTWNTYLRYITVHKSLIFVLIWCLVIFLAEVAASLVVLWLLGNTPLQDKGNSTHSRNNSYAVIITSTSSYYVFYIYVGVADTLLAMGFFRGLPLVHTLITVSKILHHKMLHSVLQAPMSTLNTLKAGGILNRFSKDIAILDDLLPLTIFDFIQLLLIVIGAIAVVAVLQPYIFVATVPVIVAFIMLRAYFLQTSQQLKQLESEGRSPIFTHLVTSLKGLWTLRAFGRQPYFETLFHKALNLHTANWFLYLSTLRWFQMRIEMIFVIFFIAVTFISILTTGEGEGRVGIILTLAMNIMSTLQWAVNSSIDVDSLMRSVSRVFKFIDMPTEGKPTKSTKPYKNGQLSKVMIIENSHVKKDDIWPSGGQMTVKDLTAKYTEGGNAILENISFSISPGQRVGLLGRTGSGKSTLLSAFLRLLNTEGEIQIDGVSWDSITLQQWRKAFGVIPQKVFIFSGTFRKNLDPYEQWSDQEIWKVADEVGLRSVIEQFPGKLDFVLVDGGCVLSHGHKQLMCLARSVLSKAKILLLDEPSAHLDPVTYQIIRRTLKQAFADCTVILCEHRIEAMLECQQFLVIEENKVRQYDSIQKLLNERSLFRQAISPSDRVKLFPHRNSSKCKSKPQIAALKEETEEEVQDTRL

- activation at 10 µM [1]: > 60%
Compound: Cc1cccc(C)c1-c1cc2nc(n1)NS(=O)(=O)c1cccc(c1)C(=O)N(Cc1cnn(C)c1)[C@H](CC(C)(C)C)CO2 [Compound 826]

- activation at 10 µM [2]: > 600%
Compound: Cc1cccc(C)c1-c1cc2nc(n1)NS(=O)(=O)c1cccc(c1)C(=O)N(Cc1nc(C(C)(C)C)cs1)[C@H](CC(C)(C)C)CO2 [Compound 702]

- EC50 (Table 10, read-out: HBE EC50): < 1 µM
- Emax [3]: > 60%
Compound: Cc1cccc(C)c1-c1cc2nc(n1)NS(=O)(=O)c1cccc(c1)C(=O)N(Cc1ccc(-c3c(C)n[nH]c3C)cc1)[C@H](CC(C)(C)C)CO2 [Compound 143, (11R)-12-{[4-(3,5-dimethyl-1H-pyrazol-4-yl)phenyl]methyl}-6-(2,6-dimethylphenyl)-11-(2,2-dimethylpropyl)-9-oxa-2λ^6-thia-3,5,12,19-tetraazatricyclo[12.3.1.14,8]nonadeca-1(17),4,6,8(19),14(18),15-hexaene-2,2,13-trione]

- activation at 10 µM [4]: > 600%
Compound: Cc1cccc(C)c1-c1cc2nc(n1)NS(=O)(=O)c1cccc(c1)C(=O)N(CC(=O)N1CCC(C(C)(C)C)CC1)[C@H](CC(C)(C)C)CO2 [Compound 210]

- EC50 (Table 11, read-out: HBE EC50): < 1 µM
- Emax [5]: > 60%
Compound: COC1CCN(c2cccc(CN3C(=O)c4cccc(c4)S(=O)(=O)Nc4nc(cc(-c5c(C)cccc5C)n4)OC[C@H]3CC(C)(C)C)n2)C1 (some centres unmarked) [Compound 625]

- EC50 (HBE assay, read-out: HBE EC50): < 1 µM
- Emax [6]: > 60%
Compound: COC[C@H]1CC[C@@H](C)N1c1cncc(CN2C(=O)c3cccc(c3)S(=O)(=O)Nc3nc(cc(-c4c(C)cccc4C)n3)OC[C@H]2CC(C)(C)C)n1 [Compound 1450]

- EC50 (Table 12, read-out: HBE EC50): < 1 µM
- Emax [7]: > 60%
Compound: Cc1cccc(C)c1-c1cc2nc(n1)NS(=O)(=O)c1cccc(c1)C(=O)N(Cc1ccn(CC(C)C)n1)[C@H](CC(C)(C)C)CO2 [Compound 454]

Compound: Cc1cccc(C)c1-c1cc2nc(n1)NS(=O)(=O)c1cccc(c1)C(=O)N(Cc1ncc(N3C4CCC3COC4)cn1)[C@H](CC(C)(C)C)CO2 [Compound 563]
- EC50 (HBE EC50 (μM), Table 12): < 1 µM
- Emax [7]: > 60%

Compound: Cc1cccc(C)c1-c1cc2nc(n1)NS(=O)(=O)c1cccc(c1)C(=O)N(Cc1cncc(N3CCCC[C@H]3C3CC3)n1)[C@H](CC(C)(C)C)CO2 [Compound 1532]
- activation at 10 µM (read-out: HBE Activity at 10 μM (%)): > 60%

- EC50 (Table 11, read-out: HBE EC50): < 1 µM
- Emax [5]: > 60%
Compound: Cc1cccc(C)c1-c1cc2nc(n1)NS(=O)(=O)c1cccc(c1)C(=O)N(CC1CCC(C)(C)CO1)[C@H](CC(C)(C)C)CO2 (single isomer, unassigned) [Compound 22]

- EC50 (Table 11, read-out: HBE EC50): < 1 µM
- Emax [5]: > 60%
Compound: Cc1cccc(C)c1-c1cc2nc(n1)NS(=O)(=O)c1cccc(c1)C(=O)N(CC1CCCOC1)[C@H](CC(C)(C)C)CO2 (some centres unmarked) [Compound 818]

- EC50 (Table 12, read-out: HBE EC50): < 1 µM
- Emax [7]: > 60%
Compound: Cc1cccc(C)c1-c1cc2nc(n1)NS(=O)(=O)c1cccc(c1)C(=O)N(Cc1ccnc(OC(C)C)n1)[C@H](CC(C)(C)C)CO2 [Compound 595]

Compound: Cc1cccc(C)c1-c1cc2nc(n1)NS(=O)(=O)c1cccc(c1)C(=O)N(CC1CC(N3C[C@@H](C)O[C@@H](C)C3)C1)[C@H](CC(C)(C)C)CO2 (single isomer, unassigned) [Compound 64]
- EC50 (HBE EC50 (μM), Table 10): < 1 µM
- Emax (read-out: HBE Max activity (%)): > 60%

- activation at 10 µM [1]: > 60%
Compound: CNC(=O)COc1ccccc1CN1C(=O)c2cccc(c2)S(=O)(=O)Nc2nc(cc(-c3c(C)cccc3C)n2)OC[C@H]1CC(C)(C)C [Compound 775]

- activation at 10 µM [4]: > 600%
Compound: Cc1cccc(C)c1-c1cc2nc(n1)NS(=O)(=O)c1cccc(c1)C(=O)N(CC1(C(=O)NC3CCCCC3)CC1)[C@H](CC(C)(C)C)CO2 [Compound 1115]

- activation at 10 µM [4]: > 600%
Compound: Cc1cccc(C)c1-c1cc2nc(n1)NS(=O)(=O)c1cccc(c1)C(=O)N(CC(=O)N1CCCCC1c1ccccc1)[C@H](CC(C)(C)C)CO2 (some centres unmarked) [Compound 196]

- EC50 (Table 10, read-out: HBE EC50): < 1 µM
- Emax [3]: > 60%
Compound: COc1ccc(CN2C(=O)c3cccc(c3)S(=O)(=O)Nc3nc(cc(-c4c(C)cccc4C)n3)OC[C@H]2CC(C)(C)C)cc1 [Compound 770]

- activation at 10 µM [2]: > 600%
Compound: Cc1cccc(C)c1-c1cc2nc(n1)NS(=O)(=O)c1cccc(c1)C(=O)N(Cc1nccc(N(C)C(C)C)n1)[C@H](CC(C)C)CO2 [Compound 552]

- EC50 (Table 13, read-out: HBE EC50): < 1 µM
- Emax (Table 13, read-out: HBE Max Activity (%)): > 60%
Compound: Cc1cccc(C)c1-c1cc2nc(n1)NS(=O)(=O)c1cccc(c1)C(=O)N(Cc1ccc3c(n1)N1CCOCC1C(C)C3)[C@H](CC(C)(C)C)CO2 (some centres unmarked) [Compound 1154]

- EC50 (Table 12, read-out: HBE EC50): < 1 µM
- Emax [7]: > 60%
Compound: Cc1cccc(C)c1-c1cc2nc(n1)NS(=O)(=O)c1cccc(c1)C(=O)N(Cc1ncc(N3CCC(C)(C)CC3)cc1F)[C@H](CC(C)(C)C)CO2 [Compound 522]

- EC50 (Table 11, read-out: HBE EC50): < 1 µM
- Emax [5]: > 60%
Compound: Cc1cccc(C)c1-c1cc2nc(n1)NS(=O)(=O)c1cccc(c1)C(=O)N(Cc1cncc(C(C)C)n1)[C@H](CC(C)(C)C)CO2 [Compound 892]

- activation at 10 µM [8]: > 60%
Compound: Cc1cccc(C)c1-c1cc2nc(n1)NS(=O)(=O)c1cccc(c1)C(=O)N(Cc1ncc(OC3CCC3)cn1)[C@H](CC(C)(C)F)CO2 [Compound 1509]

- activation at 10 µM [2]: > 600%
Compound: Cc1cccc(C)c1-c1cc2nc(n1)NS(=O)(=O)c1cccc(c1)C(=O)N(Cc1cccc(N3CCC[C@@]3(C)C(=O)O)n1)[C@H](CC(C)(C)C)CO2 [Compound 278]

- activation at 10 µM [2]: 30 to 60%
Compound: Cc1cccc(C)c1-c1cc2nc(n1)NS(=O)(=O)c1cccc(c1)C(=O)N(CC(=O)NCC1CCCC1)[C@H](CC(C)(C)C)CO2 [Compound 228]

- EC50 (Table 10, read-out: HBE EC50): 3 to 30 µM
- Emax [3]: 30 to 60%
Compound: Cc1cccc(C)c1-c1cc2nc(n1)NS(=O)(=O)c1cccc(c1)C(=O)N(CC1CCC(NCC(=O)O)CC1)[C@H](CC(C)(C)C)CO2 (some centres unmarked) [Compound 911]

- EC50 (Table 11, read-out: HBE EC50): 1 to 3 µM
- Emax [5]: > 60%
Compound: Cc1cccc(C)c1-c1cc2nc(n1)NS(=O)(=O)c1cccc(c1)C(=O)N(Cc1ncc(N(C)C(C)C)cn1)[C@H](CC(C)(C)C)CO2 [Compound 633]

- EC50 (Table 10, read-out: HBE EC50): < 1 µM
- Emax [3]: > 60%
Compound: Cc1cccc(C)c1-c1cc2nc(n1)NS(=O)(=O)c1cccc(c1)C(=O)N(Cc1cccnc1N1CCOCC1)[C@H](CC(C)(C)C)CO2 [Compound 374]

- EC50 (Table 12, read-out: HBE EC50): < 1 µM
- Emax [7]: > 60%
Compound: Cc1cccc(C)c1-c1cc2nc(n1)NS(=O)(=O)c1cccc(c1)C(=O)N(Cc1cccc(NC34CC(C3)C4)n1)[C@H](CC(C)(C)C)CO2 [Compound 440]

Compound: COCCCN(C)c1cccc(CN2C(=O)c3cccc(c3)S(=O)(=O)Nc3nc(cc(-c4c(C)cccc4C)n3)OC[C@H]2CC(C)(C)C)n1 [Compound 127, (11R)-6-(2,6-Dimethylphenyl)-11-(2,2-dimethylpropyl)-12-[[6-[3-methoxypropyl(methyl)amino]-2-pyridyl]methyl]-2,2-dioxo-9-oxa-2λ^6-thia-3,5,12,19-tetrazatricyclo[12.3.1.14,8]nonadeca-1(18),4(19),5,7,14,16-hexaen-13-one]
- EC50 (Table 10, read-out: HBE EC50): < 1 µM
- Emax (read-out: HBE Max activity (%)): > 60%

- EC50 (HBE assay, read-out: HBE EC50): < 1 µM
Compound: Cc1cccc(C)c1-c1cc2nc(n1)NS(=O)(=O)c1cccc(c1)C(=O)N(Cc1ncc(N3CC[C@H]3C)cn1)[C@H](CC(C)(C)C)CO2 (stereo in doubt) [Compound 1406]

- EC50 (HBE assay, read-out: HBE EC50): < 1 µM
- Emax [6]: > 60%
Compound: Cc1cccc(C)c1-c1cc2nc(n1)NS(=O)(=O)c1cccc(c1)C(=O)N(Cc1ccnc(N3CCC[C@H]3C(C)C)n1)[C@H](CC(C)(C)C)CO2 [Compound 1475]

- EC50 (Table 12, read-out: HBE EC50): < 1 µM
- Emax [7]: > 60%
Compound: COC1CN(c2cccc(CN3C(=O)c4cccc(c4)S(=O)(=O)Nc4nc(cc(-c5c(C)cccc5C)n4)OC[C@H]3CC(C)(C)C)n2)C(C)(C)C1 (some centres unmarked) [Compound 876]

- EC50 (Table 12, read-out: HBE EC50): < 1 µM
- Emax [7]: > 60%
Compound: Cc1cccc(C)c1-c1cc2nc(n1)NS(=O)(=O)c1cccc(c1)C(=O)N(Cc1ncc(N3CC4CC3CO4)cn1)[C@H](CC(C)(C)C)CO2 (some centres unmarked) [Compound 545]

- EC50 (Table 10, read-out: HBE EC50): 1 to 3 µM
- Emax [3]: > 60%
Compound: Cc1cccc(C)c1-c1cc2nc(n1)NS(=O)(=O)c1cccc(c1)C(=O)N(Cc1cccc(N3CC(=O)NC3=O)c1)[C@H](CC(C)(C)C)CO2 [Compound 148, 1-[3-[[(11R)-6-(2,6-Dimethylphenyl)-11-(2,2-dimethylpropyl)-2,2,13-trioxo-9-oxa-2λ^6-thia-3,5,12,19-tetrazatricyclo[12.3.1.14,8]nonadeca-1(18),4(19),5,7,14,16-hexaen-12-yl]methyl]phenyl]imidazolidine-2,4-dione]

- activation at 10 µM [1]: > 60%
Compound: Cc1cccc(C)c1-c1cc2nc(n1)NS(=O)(=O)c1cccc(c1)C(=O)N(Cc1ccccc1-c1c[nH]nc1C)[C@H](CC(C)(C)C)CO2 [Compound 307]

- activation at 10 µM [4]: > 600%
Compound: Cc1cccc(C)c1-c1cc2nc(n1)NS(=O)(=O)c1cccc(c1)C(=O)N(CC(=O)N1CCC(c3ccccc3)C1)[C@H](CC(C)(C)C)CO2 (some centres unmarked) [Compound 191]

- EC50 (Table 11, read-out: HBE EC50): 1 to 3 µM
- Emax [5]: > 60%
Compound: Cc1cccc(C)c1-c1cc2nc(n1)NS(=O)(=O)c1cccc(c1)C(=O)N(Cc1ncc(N3CCC4(CC3)CC4)cn1)[C@H](CC(C)(C)C)CO2 [Compound 708]

- activation at 10 µM [4]: > 600%
Compound: Cc1cccc(C)c1-c1cc2nc(n1)NS(=O)(=O)c1cccc(c1)C(=O)N(CC(=O)N1CCc3ccccc3C1C)[C@H](CC(C)(C)C)CO2 (some centres unmarked) [Compound 211]

- activation at 10 µM [8]: > 60%
Compound: COC(=O)Nc1cnc(CN2C(=O)c3cccc(c3)S(=O)(=O)Nc3nc(cc(-c4c(C)cccc4C)n3)OC[C@H]2CC(C)(C)C)nc1 [Compound 1514]

From US20240150377A1, “MODULATORS OF CYSTIC FIBROSIS TRANSMEMBRANE CONDUCTANCE REGULATOR” (VERTEX PHARMACEUTICALS INCORPORATED, priority 2020, published 2024)
